From publication PMC5675120 (Nature chemical biology, 2017) come the findings set out here.

One experiment has as its target BAX (Homo sapiens, UniProt Q07812). Description: STD NMR. Format: binding.
Experiment [1] addresses T1, BCL-2-associated X protein (BAX), recombinant, full-length, monomeric (human, UniProt Q07812 1-192). Description: competition STD NMR.
Experiment [2] has as its target T1, BCL-2-associated X protein (BAX), …. Put plainly: fluorescence polarisation.

Where no end group is shown, it is not given here. The star is where a group is joined. FITC = O=C1OC2(c3ccc(O)cc3Oc3cc(O)ccc32)c2ccc(NC(=S)*)cc21

BAX, sequence (Q07812 whole entry): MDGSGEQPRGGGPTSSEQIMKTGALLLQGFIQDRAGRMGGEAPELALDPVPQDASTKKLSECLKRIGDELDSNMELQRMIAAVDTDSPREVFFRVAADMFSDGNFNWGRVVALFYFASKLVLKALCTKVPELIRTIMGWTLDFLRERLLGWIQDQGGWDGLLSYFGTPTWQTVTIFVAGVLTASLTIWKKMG
T1 sequence (Q07812 whole entry): as above

Turning to `Oc1cccc(Oc2ccccc2)c1` [compound 2, 3-phenoxyphenol], the “STD NMR; liposomal release sensitization” value on BAX was “all retain BAX-binding activity as assessed by STD NMR, and demonstrate BAX-sensitization activity”. For the molecule `Oc1ccc(Cc2ccccc2)cc1` [compound 3, 4-benzylphenol], on BAX, the “STD NMR; liposomal release sensitization” value was “all retain BAX-binding activity as assessed by STD NMR, and demonstrate BAX-sensitization activity”.

In the case of `Nc1ccc(Oc2ccccc2)cc1` [compound 4, 4-phenoxyaniline], the “STD NMR; liposomal release sensitization” value at BAX is “all retain BAX-binding activity as assessed by STD NMR, and demonstrate BAX-sensitization activity”.

In the case of EALKKALRRHRFLWQRRQRA [vMIA peptide (aa 131-150), as used in competition STD NMR], the binding result in experiment [1] was “binds”. With {FITC}-EALKKALRRHRFLWQRRQRA [FITC-vMIA peptide (aa 131-150)], the binding result in experiment [2] is on record as “binds”.
